# Assay results reported in ChEMBL document CHEMBL3885881, “DrugMatrix”.
# Organism: Rattus norvegicus
# Experiment: DrugMatrix - Regimen: Daily Repeat
# Format: toxicity, organism-based, Sprague-Dawley
# Set-up: regimen Daily Repeat, gender Male, age 6-8 weeks
# Conditions: in vivo, po, route oral GAVAGE, vehicle 100 % WATER; for ABSOLUTE BASOPHIL / ABSOLUTE EOSINOPHIL / ABSOLUTE LYMPHOCYTE / ABSOLUTE MONOCYTE / ABSOLUTE SEGMENTED NEUTROPHIL / BASOPHIL / EOSINOPHIL / ERYTHROCYTE COUNT / HEMATOCRIT / HEMOGLOBIN / LEUKOCYTE COUNT / LYMPHOCYTE / MEAN CORPUSCULAR HEMOGLOBIN / MEAN CORPUSCULAR HEMOGLOBIN CONCENTRATION / MEAN CORPUSCULAR VOLUME / MONOCYTE / NEUTROPHIL / NUCLEATED RED BLOOD CELLS / PLATELET COUNT: tissue Blood; for ALANINE AMINOTRANSFERASE / ALBUMIN / ALKALINE PHOSPHATASE / ASPARTATE AMINOTRANSFERASE / BLOOD UREA NITROGEN / CARBON DIOXIDE / CHLORIDE / CHOLESTEROL / CREATINE PHOSPHOKINASE / CREATININE / GLUCOSE / LACTATE DEHYDROGENASE / LIPASE / PHOSPHORUS / POTASSIUM / SODIUM / TOTAL BILIRUBIN / TOTAL PROTEIN / URIC ACID: tissue Plasma
# [1] = 0 mg/kg, 72 h, dose level Control, time 3 day
# [2] = 0 mg/kg, 120 h, dose level Control, time 5 day
# [3] = 1 mg/kg, 72 h, dose level Low, time 3 day
compound,measurement,setting,value
CC[C@H](C)[C@H]1O[C@]2(C=C[C@@H]1C)C[C@@H]1C[C@@H](C/C=C(\C)[C@@H](O[C@H]3C[C@H](OC)[C@@H](O[C@H]4C[C@H](OC)[C@@H](O)[C@H](C)O4)[C@H](C)O3)[C@@H](C)/C=C/C=C3\CO[C@@H]4[C@H](O)C(C)=C[C@@H](C(=O)O1)[C@]34O)O2.CO[C@H]1C[C@H](O[C@H]2[C@H](C)O[C@@H](O[C@@H]3/C(C)=C/C[C@@H]4C[C@@H](C[C@]5(C=C[C@H](C)[C@@H](C(C)C)O5)O4)OC(=O)[C@@H]4C=C(C)[C@@H](O)[C@H]5OC/C(=C\C=C\[C@@H]3C)[C@]54O)C[C@@H]2OC)O[C@@H](C)[C@@H]1O [ABAMECTIN],ABSOLUTE BASOPHIL,[1],0 CELLS/uL
same,ABSOLUTE EOSINOPHIL,[1],40 CELLS/uL
same,ABSOLUTE LYMPHOCYTE,[1],13599.5 CELLS/uL
same,ABSOLUTE MONOCYTE,[1],239.33 CELLS/uL
same,ABSOLUTE SEGMENTED NEUTROPHIL,[1],1021.17 CELLS/uL
same,BASOPHIL,[1],0%
same,EOSINOPHIL,[1],0.33%
same,ERYTHROCYTE COUNT,[1],5.71 x10E6/uL
same,HEMATOCRIT,[1],36.35%
same,HEMOGLOBIN,[1],14.05 G/DL
same,LEUKOCYTE COUNT,[1],14.9 x10E3/uL
same,LYMPHOCYTE,[1],91%
same,MEAN CORPUSCULAR HEMOGLOBIN,[1],24.62 pg
same,MEAN CORPUSCULAR HEMOGLOBIN CONCENTRATION,[1],38.65 G/DL
same,MEAN CORPUSCULAR VOLUME,[1],63.7 fL
same,MONOCYTE,[1],1.5%
same,NEUTROPHIL,[1],7.17%
same,NUCLEATED RED BLOOD CELLS,[1],0.33 /100WBC
same,PLATELET COUNT,[1],1225.5 x10E3/uL
same,ALANINE AMINOTRANSFERASE,[1],48.5 u/L
same,ALBUMIN,[1],4.18 G/DL
same,ALKALINE PHOSPHATASE,[1],390.83 u/L
same,ASPARTATE AMINOTRANSFERASE,[1],89 u/L
same,BLOOD UREA NITROGEN,[1],14.83 mg/dL
same,CARBON DIOXIDE,[1],24.83 mmol/L
same,CHLORIDE,[1],100.83 MEQ/L
same,CHOLESTEROL,[1],72.5 mg/dL
same,CREATINE PHOSPHOKINASE,[1],503 u/L
same,CREATININE,[1],0.2 mg/dL
same,GLUCOSE,[1],163 mg/dL
same,LACTATE DEHYDROGENASE,[1],316.83 u/L
same,LIPASE,[1],9.83 u/L
same,PHOSPHORUS,[1],11.57 mg/dL
same,POTASSIUM,[1],6.16 MEQ/L
same,SODIUM,[1],142.62 MEQ/L
same,TOTAL BILIRUBIN,[1],0.2 mg/dL
same,TOTAL PROTEIN,[1],5.8 G/DL
same,URIC ACID,[1],1.65 mg/dL
same,ABSOLUTE BASOPHIL,[2],0 CELLS/uL
same,ABSOLUTE EOSINOPHIL,[2],21 CELLS/uL
same,ABSOLUTE LYMPHOCYTE,[2],14288.5 CELLS/uL
same,ABSOLUTE MONOCYTE,[2],205.33 CELLS/uL
same,ABSOLUTE SEGMENTED NEUTROPHIL,[2],968.5 CELLS/uL
same,BASOPHIL,[2],0%
same,EOSINOPHIL,[2],0.17%
same,ERYTHROCYTE COUNT,[2],5.83 x10E6/uL
same,HEMATOCRIT,[2],36.53%
same,HEMOGLOBIN,[2],14.4 G/DL
same,LEUKOCYTE COUNT,[2],15.48 x10E3/uL
same,LYMPHOCYTE,[2],92%
same,MEAN CORPUSCULAR HEMOGLOBIN,[2],24.72 pg
same,MEAN CORPUSCULAR HEMOGLOBIN CONCENTRATION,[2],39.43 G/DL
same,MEAN CORPUSCULAR VOLUME,[2],62.68 fL
same,MONOCYTE,[2],1.33%
same,NEUTROPHIL,[2],6.5%
same,NUCLEATED RED BLOOD CELLS,[2],0.17 /100WBC
same,PLATELET COUNT,[2],1280.5 x10E3/uL
same,ALANINE AMINOTRANSFERASE,[2],50 u/L
same,ALBUMIN,[2],4.28 G/DL
same,ALKALINE PHOSPHATASE,[2],380.17 u/L
same,ASPARTATE AMINOTRANSFERASE,[2],82.67 u/L
same,BLOOD UREA NITROGEN,[2],15.33 mg/dL
same,CARBON DIOXIDE,[2],27.17 mmol/L
same,CHLORIDE,[2],100.33 MEQ/L
same,CHOLESTEROL,[2],60.67 mg/dL
same,CREATINE PHOSPHOKINASE,[2],441.5 u/L
same,CREATININE,[2],0.16 mg/dL
same,GLUCOSE,[2],146 mg/dL
same,LACTATE DEHYDROGENASE,[2],189.33 u/L
same,LIPASE,[2],9.17 u/L
same,PHOSPHORUS,[2],11.67 mg/dL
same,POTASSIUM,[2],6.86 MEQ/L
same,SODIUM,[2],142.33 MEQ/L
same,TOTAL BILIRUBIN,[2],0.2 mg/dL
same,TOTAL PROTEIN,[2],6.12 G/DL
same,URIC ACID,[2],1.82 mg/dL
same,ABSOLUTE BASOPHIL,[3],0 CELLS/uL
same,ABSOLUTE EOSINOPHIL,[3],0 CELLS/uL
same,ABSOLUTE LYMPHOCYTE,[3],13707 CELLS/uL
same,ABSOLUTE MONOCYTE,[3],388 CELLS/uL
same,ABSOLUTE SEGMENTED NEUTROPHIL,[3],1005 CELLS/uL
same,BASOPHIL,[3],0%
same,EOSINOPHIL,[3],0%
same,ERYTHROCYTE COUNT,[3],5.4 x10E6/uL
same,HEMATOCRIT,[3],34.53%
same,HEMOGLOBIN,[3],13.23 G/DL
same,LEUKOCYTE COUNT,[3],15.1 x10E3/uL
same,LYMPHOCYTE,[3],91%
same,MEAN CORPUSCULAR HEMOGLOBIN,[3],24.47 pg
same,MEAN CORPUSCULAR HEMOGLOBIN CONCENTRATION,[3],38.3 G/DL
same,MEAN CORPUSCULAR VOLUME,[3],63.93 fL
same,MONOCYTE,[3],2.67%
same,NEUTROPHIL,[3],6.33%
same,NUCLEATED RED BLOOD CELLS,[3],0 /100WBC
same,PLATELET COUNT,[3],1310 x10E3/uL
same,ALANINE AMINOTRANSFERASE,[3],54 u/L
same,ALBUMIN,[3],4.17 G/DL
same,ALKALINE PHOSPHATASE,[3],413 u/L
same,ASPARTATE AMINOTRANSFERASE,[3],81.33 u/L
same,BLOOD UREA NITROGEN,[3],14.33 mg/dL
same,CARBON DIOXIDE,[3],26.67 mmol/L
same,CHLORIDE,[3],100.33 MEQ/L
same,CHOLESTEROL,[3],79.67 mg/dL
same,CREATINE PHOSPHOKINASE,[3],332.67 u/L
same,CREATININE,[3],0.19 mg/dL
same,GLUCOSE,[3],158 mg/dL
same,LACTATE DEHYDROGENASE,[3],294.67 u/L
same,LIPASE,[3],9 u/L
same,PHOSPHORUS,[3],11.97 mg/dL
same,POTASSIUM,[3],6.52 MEQ/L
same,SODIUM,[3],142.57 MEQ/L
same,TOTAL BILIRUBIN,[3],0.23 mg/dL
same,TOTAL PROTEIN,[3],5.73 G/DL
same,URIC ACID,[3],1.57 mg/dL
